Test results: US10781204B2, “TYK2 inhibitors and uses thereof” (Nimbus Lakshmi, Inc., priority 2015, dated 2020)

Legend:
JAK2 = JAK2 (Homo sapiens (Human), UniProt O60674); assay: JAK2 radioactive kinase assay; type: biochemical; settings: ATP 10 μM
Protocol: (§1) Peptide substrate, [KKSRGDYMTMQIG], (20 μM) is prepared in reaction buffer (20 mM Hepes pH 7.5, 10 mM MgCl2, 1 mM EGTA, 0.02% Brij35, 0.02 mg/mL BSA, 0.1 mM […], 2 mM DTT, 1% DMSO. TYK2 (Invitrogen) kinase is added, followed by compounds in DMSO. ^33PATP is added to initiate the reaction with ATP at 10 μM. Kinase reaction is incubated for 120 min at room temp and reactions are spotted onto P81 ion exchange paper (Whatman #3698-915), and then washed extensively in 0.75% phosphoric acid, prior to reading the radioactivity counts. For JAK2 (Invitrogen) kinase assay the peptide substrate poly[Glu:Tyr] (4:1), 0.2 mg/ml is used, in the reaction carried out the same as for TYK2.

TYK2 = TYK2 (Homo sapiens (Human), UniProt P29597); assay: Tyk2 radioactive kinase assay; type: biochemical; settings: ATP 10 μM
Protocol: as §1

[1] = tested on: JAK2-pSTAT5 (GM-CSF induced pSTAT5); assay: GM-CSF induced pSTAT5 in human PBMC; type: cell-based; settings: Homo sapiens, PBMC, 20 min, 5 ng/mL GM-CSF
Protocol: (§2) Human PBMC are isolated from buffy coat and are stored frozen for assays as needed. Cells for assay are thawed and resuspended in complete media containing serum, then cells are diluted to 1.67 E6 cells/ml so that 120 ul per well is 200,000 cells. 15 ul of compound or DMSO is added to the well at the desired concentrations and incubated at 1 hr at 37 C. 15 ul of stimulus (final concentration of 1.7 ng/mL IL-12) is added for 30 minutes prior to pSTAT4 and total STAT4 analysis using cell lysates prepared and analyzed by MSD reagents as per manufacturer protocol. The final DMSO concentration of compound in the assay is 0.1%.
Cells are prepared for analysis as in the above procedure and 15 ul of GM-CSF (final concentration 5 ng/mL) is added for 20 minutes prior to pSTAT5 and total STAT5 analysis using cell lysates prepared and analyzed by MSD reagents as per manufacturer protocol. The final DMSO concentration of compound in the assay is 0.1%.

[2] = tested on: Tyk2-pSTAT4 (IL-12 induced pSTAT4); assay: IL-12 induced pSTAT4 in human PBMC; type: cell-based; settings: Homo sapiens, PBMC, 0.5 h, 1.7 ng/mL IL-12, 30 minutes
Protocol: as §2

JAK2, sequence (O60674 whole entry): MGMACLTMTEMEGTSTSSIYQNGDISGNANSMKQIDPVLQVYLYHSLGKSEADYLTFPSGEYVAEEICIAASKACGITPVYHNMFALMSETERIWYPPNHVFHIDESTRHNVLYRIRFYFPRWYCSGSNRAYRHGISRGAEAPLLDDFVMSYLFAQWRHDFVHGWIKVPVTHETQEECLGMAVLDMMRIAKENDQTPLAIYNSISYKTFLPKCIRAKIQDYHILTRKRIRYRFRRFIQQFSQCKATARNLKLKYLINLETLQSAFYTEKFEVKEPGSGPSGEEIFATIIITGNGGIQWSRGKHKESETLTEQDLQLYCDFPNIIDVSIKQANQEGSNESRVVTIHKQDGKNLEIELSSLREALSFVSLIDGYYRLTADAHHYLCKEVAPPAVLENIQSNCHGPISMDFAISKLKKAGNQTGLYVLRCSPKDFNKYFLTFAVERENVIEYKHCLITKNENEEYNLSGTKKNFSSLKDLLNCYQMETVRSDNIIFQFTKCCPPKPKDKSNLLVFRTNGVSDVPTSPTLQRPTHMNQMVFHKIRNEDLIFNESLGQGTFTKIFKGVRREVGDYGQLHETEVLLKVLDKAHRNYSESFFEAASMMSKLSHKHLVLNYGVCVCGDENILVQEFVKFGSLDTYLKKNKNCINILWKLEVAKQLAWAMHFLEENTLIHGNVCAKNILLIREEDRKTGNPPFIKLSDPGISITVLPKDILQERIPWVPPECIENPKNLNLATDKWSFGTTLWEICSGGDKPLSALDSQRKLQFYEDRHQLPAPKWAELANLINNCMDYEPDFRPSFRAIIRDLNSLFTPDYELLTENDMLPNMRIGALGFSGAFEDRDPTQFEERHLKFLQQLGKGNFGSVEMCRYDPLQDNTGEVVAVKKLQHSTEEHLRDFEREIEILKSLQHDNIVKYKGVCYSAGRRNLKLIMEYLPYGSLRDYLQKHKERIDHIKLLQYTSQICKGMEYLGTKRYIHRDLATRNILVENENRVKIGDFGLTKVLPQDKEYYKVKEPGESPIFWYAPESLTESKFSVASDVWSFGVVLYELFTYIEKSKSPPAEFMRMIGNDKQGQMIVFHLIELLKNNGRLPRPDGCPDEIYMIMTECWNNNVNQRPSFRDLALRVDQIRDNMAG
TYK2, sequence (P29597 whole entry): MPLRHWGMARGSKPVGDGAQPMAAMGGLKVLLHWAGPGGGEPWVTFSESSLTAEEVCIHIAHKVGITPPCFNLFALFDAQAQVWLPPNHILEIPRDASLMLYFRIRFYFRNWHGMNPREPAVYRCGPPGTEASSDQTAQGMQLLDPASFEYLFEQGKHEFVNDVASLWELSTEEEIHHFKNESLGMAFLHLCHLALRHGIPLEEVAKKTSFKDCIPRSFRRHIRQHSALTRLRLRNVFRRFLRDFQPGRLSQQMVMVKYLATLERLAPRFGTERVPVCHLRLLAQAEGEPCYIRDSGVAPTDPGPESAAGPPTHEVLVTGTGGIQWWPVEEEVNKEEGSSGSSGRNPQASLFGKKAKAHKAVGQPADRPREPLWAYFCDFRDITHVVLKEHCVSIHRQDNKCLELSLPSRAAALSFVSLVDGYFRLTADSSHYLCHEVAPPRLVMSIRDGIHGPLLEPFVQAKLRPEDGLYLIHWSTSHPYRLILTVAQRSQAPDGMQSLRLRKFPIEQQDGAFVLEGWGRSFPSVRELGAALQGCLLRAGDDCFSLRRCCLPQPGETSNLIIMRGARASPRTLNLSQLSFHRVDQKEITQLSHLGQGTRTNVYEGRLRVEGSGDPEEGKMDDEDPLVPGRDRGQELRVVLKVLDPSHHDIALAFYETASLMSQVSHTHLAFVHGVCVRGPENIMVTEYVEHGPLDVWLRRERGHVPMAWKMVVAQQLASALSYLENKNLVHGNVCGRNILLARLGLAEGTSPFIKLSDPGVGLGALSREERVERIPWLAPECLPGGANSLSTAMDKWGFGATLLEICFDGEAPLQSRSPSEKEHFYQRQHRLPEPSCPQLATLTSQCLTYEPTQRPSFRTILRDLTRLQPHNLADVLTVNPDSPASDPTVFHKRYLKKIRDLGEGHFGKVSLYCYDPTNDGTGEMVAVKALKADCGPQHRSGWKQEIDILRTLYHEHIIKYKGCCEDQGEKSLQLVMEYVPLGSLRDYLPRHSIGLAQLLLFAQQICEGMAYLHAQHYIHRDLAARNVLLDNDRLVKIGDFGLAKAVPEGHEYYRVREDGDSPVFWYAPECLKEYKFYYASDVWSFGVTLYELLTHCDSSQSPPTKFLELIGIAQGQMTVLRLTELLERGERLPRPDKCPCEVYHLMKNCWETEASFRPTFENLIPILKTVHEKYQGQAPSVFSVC

Ki (JAK2) | Ki (TYK2) | EC50 [1] | EC50 [2] | SMILES
10 to 100 nM | 0.1 to 10 nM | > 2000 nM |  | N#Cc1cccc(F)c1-c1cc(-n2ccc(N3CCCC(N)C3)n2)c2c(n1)CNC2=O (stereo not drawn) [I-68, 2-(4-(3-(3-aminopiperidin-1-yl)-1H-pyrazol-1-yl)-5-oxo-6,7-dihydro-5H-pyrrolo[3,4-b]pyridin-2-yl)-3-fluorobenzonitrile]
0.1 to 10 nM | 0.1 to 10 nM | > 2000 nM |  | N#Cc1cccc(F)c1-c1cc(-n2ccc(N3CCC4(C3)OCC(O)CO4)n2)c2c(n1)CNC2=O (stereo not drawn) [I-192, 3-fluoro-2-(4-(3-(8-hydroxy-6,10-dioxa-2-azaspiro[4.5]decan-2-yl)-1H-pyrazol-1-yl)-5-oxo-6,7-dihydro-5H-pyrrolo[3,4-b]pyridin-2-yl)benzonitrile]
10 to 100 nM | 0.1 to 10 nM | > 2000 nM |  | N#Cc1cccc(F)c1-c1cc(-n2ccc(N3CCC[C@H](N)C3)n2)c2c(n1)CNC2=O [I-74, (S)-2-(4-(3-(3-aminopiperidin-1-yl)-1H-pyrazol-1-yl)-5-oxo-6,7-dihydro-5H-pyrrolo[3,4-b]pyridin-2-yl)-3-fluorobenzonitrile]
0.1 to 10 nM | 0.1 to 10 nM | > 2000 nM |  | N#Cc1cccc(F)c1-c1cc(-n2cc3c(n2)NCCC3)c2c(n1)CNC2=O [I-75, 3-fluoro-2-(5-oxo-4-(4,5,6,7-tetrahydro-2H-pyrazolo[3,4-b]pyridin-2-yl)-6,7-dihydro-5H-pyrrolo[3,4-b]pyridin-2-yl)benzonitrile]
100 to 1000 nM | 0.1 to 10 nM | > 2000 nM |  | O=C1NCc2nc(-c3c(F)cccc3F)cc(-n3ccc(N4CCC5(CCOCC5)CC4)n3)c21 [I-9, 4-(3-(3-oxa-9-azaspiro[5.5]undecan-9-yl)-1H-pyrazol-1-yl)-2-(2,6-difluorophenyl)-6,7-dihydro-5H-pyrrolo[3,4-b]pyridin-5-one]
0.1 to 10 nM | 0.1 to 10 nM | > 2000 nM |  | N#Cc1cccc(F)c1-c1cc(-n2ccc(N3CCOC[C@H]3CO)n2)c2c(n1)CNC2=O [I-164, (R)-3-fluoro-2-(4-(3-(3-(hydroxymethyl)morpholino)-1H-pyrazol-1-yl)-5-oxo-6,7-dihydro-5H-pyrrolo[3,4-b]pyridin-2-yl)benzonitrile]
100 to 1000 nM | 0.1 to 10 nM | > 2000 nM |  | N#Cc1cccc(F)c1-c1cc(-n2ccc(C3CCOCC3)n2)c2c(n1)CNC2=O [I-16, 3-fluoro-2-(5-oxo-4-(3-(tetrahydro-2H-pyran-4-yl)-1H-pyrazol-1-yl)-6,7-dihydro-5H-pyrrolo[3,4-b]pyridin-2-yl)benzonitrile]
0.1 to 10 nM | 0.1 to 10 nM | > 2000 nM |  | CC1(C#N)CCCN(c2ccn(-c3cc(-c4c(F)cccc4C#N)nc4c3C(=O)NC4)n2)C1 (stereo not drawn) [I-133, 1-(1-(2-(2-cyano-6-fluorophenyl)-5-oxo-6,7-dihydro-5H-pyrrolo[3,4-b]pyridin-4-yl)-1H-pyrazol-3-yl)-3-methylpiperidine-3-carbonitrile]
≥ 1000 nM | ≥ 1000 nM | > 2000 nM |  | CN1CC2(CCN(c3ccn(-c4cc(-c5c(F)cccc5C#N)nc5c4C(=O)NC5)n3)CC2)C1 [I-110, 3-fluoro-2-(4-(3-(2-methyl-2,7-diazaspiro[3.5]nonan-7-yl)-1H-pyrazol-1-yl)-5-oxo-6,7-dihydro-5H-pyrrolo[3,4-b]pyridin-2-yl)benzonitrile]
0.1 to 10 nM | 0.1 to 10 nM |  | 100 to 2000 nM | N#Cc1cccc(F)c1-c1cc(-n2ccc(N3CCC[C@@H](C(=O)N4CCCC4)C3)n2)c2c(n1)CNC2=O [I-167, (R)-3-fluoro-2-(5-oxo-4-(3-(3-(pyrrolidine-1-carbonyl)piperidin-1-yl)-1H-pyrazol-1-yl)-6,7-dihydro-5H-pyrrolo[3,4-b]pyridin-2-yl)benzonitrile]
10 to 100 nM | 0.1 to 10 nM |  | 30 to 100 nM | C[C@]1(O)CCN(c2ccn(-c3cc(-c4c(F)cccc4C#N)nc4c3C(=O)NC4)n2)C1 [I-93, (S)-3-fluoro-2-(4-(3-(3-hydroxy-3-methylpyrrolidin-1-yl)-1H-pyrazol-1-yl)-5-oxo-6,7-dihydro-5H-pyrrolo[3,4-b]pyridin-2-yl)benzonitrile]
0.1 to 10 nM | 0.1 to 10 nM |  | 100 to 2000 nM | N#Cc1cccc(F)c1-c1cc(-n2ccc(N3CCC[C@@H](N)C3)n2)c2c(n1)CNC2=O [I-73, (R)-2-(4-(3-(3-aminopiperidin-1-yl)-1H-pyrazol-1-yl)-5-oxo-6,7-dihydro-5H-pyrrolo[3,4-b]pyridin-2-yl)-3-fluorobenzonitrile]
10 to 100 nM | 0.009 to 0.1 nM |  | 100 to 2000 nM | CO[C@H]1CCN(c2ccn(-c3cc(-c4c(F)cccc4C#N)nc4c3C(=O)NC4)n2)C[C@@]1(C)O [I-229, 3-fluoro-2-(4-(3-((3R,4S)-3-hydroxy-4-methoxy-3-methylpiperi-din-1-yl)-1H-pyrazol-1-yl)-5-oxo-6,7-dihydro-5H-pyrrolo[3,4-b]pyridin-2-yl)benzonitrile]
10 to 100 nM | 0.1 to 10 nM |  | 30 to 100 nM | N#Cc1cccc(F)c1-c1cc(-n2cc3c(n2)CCCN3)c2c(n1)CNC2=O [I-77, 3-fluoro-2-(5-oxo-4-(4,5,6,7-tetrahydro-2H-pyrazolo[4,3-b]pyri-din-2-yl)-6,7-dihydro-5H-pyrrolo[3,4-b]pyridin-2-yl)benzonitrile]
0.1 to 10 nM | 0.1 to 10 nM |  | 30 to 100 nM | C[C@@]1(O)CN(c2ccn(-c3cc(-c4c(F)cccc4C#N)nc4c3C(=O)NC4)n2)CC[C@H]1O [I-182, 2-(4-(3-((3R,4R)-3,4-dihydroxy-3-methylpiperidin-1-yl)-1H-pyrazol-1-yl)-5-oxo-6,7-dihydro-5H-pyrrolo[3,4-b]pyridin-2-yl)-3-fluorobenzonitrile]
0.1 to 10 nM | 0.009 to 0.1 nM |  | 100 to 2000 nM | CC1(C)C(O)CCN1c1ccn(-c2cc(-c3c(F)cccc3C#N)nc3c2C(=O)NC3)n1 (stereo not drawn) [I-187, 3-fluoro-2-(4-(3-(3-hydroxy-2,2-dimethylpyrrolidin-1-yl)-1H-pyrazol-1-yl)-5-oxo-6,7-dihydro-5H-pyrrolo[3,4-b]pyridin-2-yl)benzonitrile]
10 to 100 nM | 0.1 to 10 nM |  | 100 to 2000 nM | N#Cc1cccc(F)c1-c1cc(-n2ccc(N3CCOC[C@H](O)C3)n2)c2c(n1)CNC2=O [I-132, (R)-3-fluoro-2-(4-(3-(6-hydroxy-1,4-oxazepan-4-yl)-1H-pyrazol-1-yl)-5-oxo-6,7-dihydro-5H-pyrrolo[3,4-b]pyridin-2-yl)benzonitrile]
0.1 to 10 nM | 0.1 to 10 nM |  | 100 to 2000 nM | N#Cc1cccc(F)c1-c1cc(-n2ccc(N3CCCNC(=O)C3)n2)c2c(n1)CNC2=O [I-140, 3-fluoro-2-(5-oxo-4-(3-(3-oxo-1,4-diazepan-1-yl)-1H-pyrazol-1-yl)-6,7-dihydro-5H-pyrrolo[3,4-b]pyridin-2-yl)benzonitrile]
0.1 to 10 nM | 0.009 to 0.1 nM |  | 30 to 100 nM | N#Cc1cccc(F)c1-c1cc(-n2ccc(N3CCC(F)C(O)C3)n2)c2c(n1)CNC2=O (stereo not drawn) [I-160, 3-fluoro-2-(4-(3-(4-fluoro-3-hydroxypiperidin-1-yl)-1H-pyrazol-1-yl)-5-oxo-6,7-dihydro-5H-pyrrolo[3,4-b]pyridin-2-yl)benzonitrile]
